Results on nine compounds are retold here after patent US10793567B2, “Bicyclic inhibitors of histone deacetylase” (Rodin Therapeutics, Inc., priority 2017, dated 2020).

One data set addresses HDAC1 (Homo sapiens (Human), UniProt Q13547). Nature of the data set: HDAC1 enzymatic assay (Caliper LabChip, peptide deacetylation). The class given is biochemical. Particulars: 17 hours, 25° C. How it is done:
(§1) The following describes an assay protocol for measuring the deacetylation of a peptide substrate by the enzymes HDAC2 or HDAC1. Enzyme, substrate, and cofactors are combined in a well of a microtiter plate and incubated for […] at 25° C. At the end of the incubation, the reaction is quenched by the addition of an SDS-containing buffer. Substrate and product are separated and quantified electrophoretically using the microfluidic-based LabChip 3000 Drug Discovery System from Caliper Life Sciences. The peptide substrate used in this assay is FAM-TSRHK(AC)KL-CONH2 (FAM is carboxyfluorescein). Peptide should be >98% purity by Capillary Electrophoresis. • 1. To a well of a 384-well plate, add 5 μL of 2× enzyme buffer. Using Labcyte Echo 550, add 100 nl compound. Enzyme and compound may be pre-incubated at this time if desired. • 2. Add 5 μL of 2× substrate buffer. • 3. Incubate plate at 25° C. for 17 hours. • 4. Terminate reaction by adding 40 μL of 1.55× stop buffer. • 5. Create job on a Caliper LabChip® 3000 Drug Discovery System. • 6. Load the plate and start electrophoresis using blue laser (480 nm) for excitation and green CCD (520 nm) for detection (CCD2). Reaction time=17 hours; Reaction temperature=25° C.
1% DMSO (from compound) 1 μM FAM-TSRHK(AC)KL-CONH2 5 nM HDAC Enzyme (specific activity may vary from lot-to-lot, and enzyme concentration may need to be adjusted to yield˜10-20% conversion of substrate to product).
Substrate and product peptides present in each sample are separated electrophoretically using the LabChip 3000 capillary electrophoresis instrument. As substrate and product peptides are separated, two peaks of fluorescence are observed. Change in the relative fluorescence intensity of the substrate and product peaks is the parameter measured, reflecting enzyme activity. Capillary electrophoregramms (RDA acquisition files) are analyzed using HTS Well Analyzer software (Caliper Life Sciences). The […] in each sample is determined as the product to sum ratio (PSR): P/(S+P), where P is the peak height of the product peptide and S is the peak height of the substrate peptide. For each compound, enzyme activity is measured at various concentrations (12 concentrations of compound spaced by 3× dilution intervals). Negative control samples (0%-inhibition in the absence of inhibitor) and positive control samples (100%-inhibition, in the presence of 20 mM EDTA) are assembled in replicates of four and are used to calculate %-inhibition values for each compound at each concentration. Percent inhibition (Pinh) is determined using following equation: Pinh=(PSR0%−PSRinh)/(PSR0%−PSR100%)*100, where PSRinh is the product sum ratio in the presence of inhibitor, PSR0% is the average product sum ration in the absence of inhibitor and PSR100% is the average product sum ratio in 100%-inhibition control samples.
The IC50 values of inhibitors are determined by fitting the inhibition curves (Pinh versus inhibitor concentration) by 4 parameter sigmoidal dose-response model using XLfit 4 software (IBDS).
In the table, “A” indicates a […] of between 0.1 μM and 0.5 μM and “B” a Kd value of greater than 0.5 μM and less than or equal to 5.0 μM.

In data set [1] the test system is human megakaryocyte progenitors (CFU-Mk). Nature of the data set: Human megakaryocyte progenitor CFC proliferation (CFU-Mk) in normal bone marrow. The class given is cell-based. Particulars: for IC50: Homo sapiens, 6-point dose response, top concentration 20 μM, read-out: CFU-Mk Total IC50; for % Control CFU-Mk Total @ 10 uM dose: 3-point dose response. The procedure:
Compounds were tested to evaluate the potential effects on human megakaryocyte progenitor proliferation in the CFU-Mk assay. Clonogenic progenitors of the human megakaryocyte (CFU-Mk) lineage were assessed in a semi-solid, collagen-based matrix containing rhIL-3 (10 ng/mL), rhIL-6 (10 ng/mL) and rhTpo (50 ng/mL).
Normal human bone marrow light density cells (lot #0170525), derived from normal bone marrow (NorCal Biologics, California), were stored at −152° C. until required for the assay. On the day of the experiment, the cells were thawed rapidly, the contents of each vial was diluted in 10 mL of Iscove's modified Dulbecco's medium containing 10% fetal bovine serum (IMDM+10% FBS) and washed by centrifugation (approximately 1200 r.p.m. for 10 minutes, room temperature). The supernatant was discarded and the cell pellets resuspended in a known volume of IMDM+10% FBS. A cell count (3% glacial acetic acid) and viability assessment (trypan blue exclusion test) was performed for the bone marrow sample.
All compounds were used as solutions in DMSO at 10 mM. Two different dosing paradigms were used depending on the study, either a six point dose response with top concentration of 20 μM, or a three point dose response with a top concentration of 10 μM. In six point dose response studies, compounds were tested at six distinct concentrations (20, 6.7, 2.2, 0.74, 0.25 and 0.082 μM), with serial dilutions prepared from the 10 mM stock concentration to achieve concentrations of 6.7, 2.2, 0.74, 0.25 and 0.082 mM. When added to the collagen-based media at 1:1000 (v/v), the final desired test concentrations were achieved. In order to generate the 20 μM final concentration, 8 μL of the 10 mM stock was added to the appropriately labeled tube. For the three point dose response studies, serial dilutions were prepared from the stock concentration to achieve concentrations of 2 and 0.4 mM. When added to the collagen-based media at 1:1000 (v/v), the final test concentrations of 10, 2 and 0.4 μM were achieved.
Clonogenic progenitors of the human megakaryocytic (CFU-Mk) lineages were set up in the media formulation described above. All compounds were added to the medium to give the final desired concentrations (20, 6.67. 2.22, 0.74, 0.25, and 0.082 μM). Solvent control cultures (containing no compound but 0.2% DMSO), as well as a standard control (containing no compound and no DMSO), were also initiated.
Human megakaryocyte progenitor assays were initiated with 1.8×10^5 cells per culture (lot #0170525). Following 14-16 days in culture, the cultures were transferred from the 35 mm dishes to labeled glass slides, were fixed (methanol/acetone) and then stained using an anti-human CD41 antibody and an alkaline phosphate detection system according to manufacturers' instructions. The colonies were assessed microscopically and scored by trained personnel and divided into the following categories based on size; CFU-Mk (3-20), CFU-Mk (21-49), CFU-Mk (≥50).
The mean±1 standard deviation of three replicate cultures was calculated for the progenitors. Two-tailed standard t-tests were performed to assess if there was a difference in the number of colonies generated between solvent control and treated cultures. Due to the potential subjectivity of colony enumeration, a p value of less than 0.01 is deemed significant. To calculate the concentration of 50% inhibition of colony growth (IC50) for each compound, a dose response curve was generated plotting the log of the compound concentration versus the percentage of control colony growth using Graphpad Prism 7.
Megakaryocyte colony enumeration was performed by trained personnel. In addition, the distribution of colony types as well as general colony and cellular morphology was analyzed. The variance in colony number detected in replicate cultures was representative of the historical coefficient of variation for colony enumeration using these types of assays. […]

The target of the next data set is HDAC2 (Homo sapiens (Human), UniProt Q92769). Nature of the data set: HDAC2 enzymatic assay (Caliper LabChip, peptide deacetylation). Particulars: 17 hours, 25° C. It counts as biochemical. How it is done: as §1, with “Load the plate and start electrophoresis using blue laser (480 nm) for excitation and green CCD (520 nm) for detection (CCD2). Reaction time=17 hours; Reaction temperature=25° C.” left out
HDAC2, sequence (Q92769 whole entry): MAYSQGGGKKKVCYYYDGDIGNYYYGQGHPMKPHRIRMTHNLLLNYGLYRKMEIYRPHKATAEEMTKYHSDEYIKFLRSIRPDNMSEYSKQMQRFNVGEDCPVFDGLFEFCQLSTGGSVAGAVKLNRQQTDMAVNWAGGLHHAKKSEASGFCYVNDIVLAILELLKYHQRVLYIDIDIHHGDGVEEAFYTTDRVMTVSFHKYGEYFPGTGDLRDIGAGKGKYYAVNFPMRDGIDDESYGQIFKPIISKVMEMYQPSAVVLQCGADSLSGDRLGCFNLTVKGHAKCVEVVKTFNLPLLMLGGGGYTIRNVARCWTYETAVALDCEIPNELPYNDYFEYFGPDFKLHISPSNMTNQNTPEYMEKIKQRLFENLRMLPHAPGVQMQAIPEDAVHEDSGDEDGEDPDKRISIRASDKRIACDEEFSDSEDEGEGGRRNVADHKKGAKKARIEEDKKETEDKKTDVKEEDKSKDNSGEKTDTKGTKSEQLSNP
Substrate and product peptides present in each sample are separated electrophoretically using the LabChip 3000 capillary electrophoresis instrument. As substrate and product peptides are separated, two peaks of fluorescence are observed. Change in the relative fluorescence intensity of the substrate and product peaks is the parameter measured, reflecting enzyme activity. Capillary electrophoregramms (RDA acquisition files) are analyzed using HTS Well Analyzer software (Caliper Life Sciences). The […] in each sample is determined as the product to sum ratio (PSR): P/(S+P), where P is the peak height of the product peptide and S is the peak height of the substrate peptide. For each compound, enzyme activity is measured at various concentrations (12 concentrations of compound spaced by 3× dilution intervals). […]
The IC50 values of inhibitors are determined by fitting the inhibition curves (Pinh versus inhibitor concentration) by 4 parameter sigmoidal dose-response model using XLfit 4 software (IBDS). […]

HDAC1, sequence (Q13547 whole entry): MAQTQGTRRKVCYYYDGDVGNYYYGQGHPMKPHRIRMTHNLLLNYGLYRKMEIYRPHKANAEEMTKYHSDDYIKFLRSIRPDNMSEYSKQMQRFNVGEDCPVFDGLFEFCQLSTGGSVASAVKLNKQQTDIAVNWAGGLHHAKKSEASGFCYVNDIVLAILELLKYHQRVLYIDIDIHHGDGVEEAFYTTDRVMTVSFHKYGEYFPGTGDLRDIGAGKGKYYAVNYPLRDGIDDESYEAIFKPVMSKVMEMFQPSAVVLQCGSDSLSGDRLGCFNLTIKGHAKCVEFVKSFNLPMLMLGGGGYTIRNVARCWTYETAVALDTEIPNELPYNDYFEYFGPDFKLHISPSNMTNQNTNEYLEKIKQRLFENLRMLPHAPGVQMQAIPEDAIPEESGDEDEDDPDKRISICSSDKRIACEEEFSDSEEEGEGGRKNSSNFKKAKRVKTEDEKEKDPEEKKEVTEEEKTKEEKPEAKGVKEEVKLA

For `CCc1ncc2c(n1)CN(C(=O)Nc1nc(-c3cccs3)ccc1N)C2` [Compound 3], the IC50 (usually the concentration at which inhibition is half-maximal) against HDAC1 is 0.5 to 5 µM; in data set [1], 2 µM.
As for `CCc1cc2c(cn1)CN(C(=O)Nc1nc(-c3cccnc3)ccc1N)C2` [Compound 8], the IC50 against HDAC1 and against HDAC2 was 0.5 to 5 µM each time.
In the case of `Nc1ccc(-c2ccc(F)cc2)nc1NC(=O)N1Cc2cn(C3COC3)nc2C1` [Compound 1], at HDAC1, the IC50 fell in the range of 0.5 to 5 µM.
For the compound `Cc1ncc2c(n1)CN(C(=O)Nc1nc(-c3ccc(F)cc3)ccc1N)C2` [Compound 14], the IC50 against HDAC1 lay within 0.5 to 5 µM. Moreover, in data set [1], the “% Control CFU-Mk Total @ 10 uM dose” value was found to be 31%.
For `Cc1ncc(-c2ccc(N)c(NC(=O)N3Cc4cn(CC(F)F)nc4C3)n2)s1` [Compound 5] the same measures were 0.5 to 5 µM and 36%.
With `COCCn1cc2c(n1)CN(C(=O)Nc1nc(-c3ccc(F)cc3F)ccc1N)C2` [Compound 9], the IC50 on HDAC1 is 0.5 to 5 µM; in data set [1], 10.8 µM.
In the case of `Cc1ncc2c(n1)CN(C(=O)Nc1nc(-c3ccc(F)s3)ccc1N)C2` [Compound 2], the IC50 on HDAC1 was 0.5 to 5 µM; in data set [1] it was 2 µM.
On to `Cc1cc2c(cn1)CN(C(=O)Nc1nc(-c3cccnc3)ccc1N)C2` [Compound 12], for which the IC50 in data set [1] is above 20 µM.
Turning to `CCc1ncc2c(n1)CN(C(=O)Nc1nc(-c3ccc(F)cc3)ccc1N)C2` [Compound 17], the IC50 against HDAC1 and against HDAC2 was 0.5 to 5 µM in each case. Besides, the “% Control CFU-Mk Total @ 10 uM dose” value in data set [1] is reported as 28%.
